US9556179B2 (BRISTOL-MYERS SQUIBB COMPANY, priority 2012, dated 2017)

How the values were obtained:
CK1δ = CK1δ (Homo sapiens (Human), UniProt P48730); assay: CK1δ kinase assay (Caliper LABCHIP electrophoretic separation of fluoresceinated peptide substrate and product); assay type: biochemical; settings: 200 pM enzyme, 50 μM ATP, 22 hours at room temperature
Outline: (§1)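 Eleven-concentration compound series in kinase reactions run for 22 hours at room temperature. Terminated with EDTA, with product conversion read by electrophoretic separation. Non-linear regression gave IC50.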

CK1ε = CK1ε (Homo sapiens (Human), UniProt P49674); assay: CK1ε kinase assay (Caliper LABCHIP electrophoretic separation of fluoresceinated peptide substrate and product); assay type: biochemical; settings: 200 pM enzyme, 50 μM ATP, 22 hours at room temperature
Chain of CK1ε (P49674 whole entry): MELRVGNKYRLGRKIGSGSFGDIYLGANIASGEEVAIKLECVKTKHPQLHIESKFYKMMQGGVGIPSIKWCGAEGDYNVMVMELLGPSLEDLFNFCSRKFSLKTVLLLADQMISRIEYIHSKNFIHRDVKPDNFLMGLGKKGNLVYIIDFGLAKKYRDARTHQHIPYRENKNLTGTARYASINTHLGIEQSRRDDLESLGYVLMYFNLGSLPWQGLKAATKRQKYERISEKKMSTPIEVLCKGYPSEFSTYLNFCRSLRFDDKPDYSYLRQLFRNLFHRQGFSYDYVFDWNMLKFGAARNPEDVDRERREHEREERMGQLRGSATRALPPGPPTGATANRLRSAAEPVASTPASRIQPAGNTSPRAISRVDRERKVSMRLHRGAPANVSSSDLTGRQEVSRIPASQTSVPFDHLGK
Outline: as §1

Chain of CK1δ (P48730 whole entry): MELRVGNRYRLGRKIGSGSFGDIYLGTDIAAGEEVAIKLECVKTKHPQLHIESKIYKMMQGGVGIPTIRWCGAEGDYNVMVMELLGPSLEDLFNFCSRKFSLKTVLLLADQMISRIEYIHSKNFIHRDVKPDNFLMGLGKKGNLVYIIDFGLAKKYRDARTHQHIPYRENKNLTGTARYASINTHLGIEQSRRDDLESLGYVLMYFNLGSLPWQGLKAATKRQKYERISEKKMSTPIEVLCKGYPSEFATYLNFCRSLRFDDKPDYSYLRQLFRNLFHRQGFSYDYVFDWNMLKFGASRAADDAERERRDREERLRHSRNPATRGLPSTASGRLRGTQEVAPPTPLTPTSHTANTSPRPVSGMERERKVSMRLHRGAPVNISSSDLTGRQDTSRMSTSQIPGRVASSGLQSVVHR

Row | SMILES | IC50 (CK1δ) | IC50 (CK1ε)
1 | COCCN1CCC(n2c(C)nc(-c3ccc(F)cc3)c2-c2ccc3nc(NC(=O)c4ccnc(F)c4)cn3n2)CC1 [Compound 141, 2-fluoro-N-(6-(4-(4-fluorophenyl)-1-(1-(2-methoxyethyl)piperidin-4-yl)-2-methyl-1H-imidazol-5-yl)imidazo [1,2-b]pyridazin-2-yl) isonicotinamide] | 1.03 nM | 16 nM
2 | Cc1nc(-c2ccc(F)cc2)c(-c2ccc3nc(NC(=O)c4ccnc(F)c4)cn3n2)n1C1CCN(C[C@@H](O)C(F)(F)F)CC1 [Compound 142, (R)-2-fluoro-N-(6-(4-(4-fluorophenyl)-2-methyl-1-(1-(3,3,3-trifluoro-2-hydroxypropyl)piperidin-4-yl)-1H-imidazol-5-yl)imidazo[1,2-b]pyridazin-2-yl)isonicotinamide] | 0.414 nM | 2.55 nM
3 | Cc1nc(-c2ccc(F)cc2)c(-c2ccc3nc(NC(=O)c4ccnc(F)c4)cn3n2)n1C1CCN(C[C@H](O)C(F)(F)F)CC1 [Compound 143, (S)-2-fluoro-N-(6-(4-(4-fluorophenyl)-2-methyl-1-(1-(3,3,3-trifluoro-2-hydroxypropyl)piperidin-4-yl)-1H-imidazol-5-yl)imidazo [1,2-b]pyridazin-2-yl)isonicotinamide] | 0.112 nM | 0.656 nM
4 | Cc1nc(-c2ccc(F)cc2)c(-c2ccc3nc(NC(=O)c4ccnc(F)c4)cn3n2)n1C1CCN(CCC#N)CC1 [Compound 144, N-(6-(1-(1-(2-cyanoethyl)piperidin-4-yl)-4-(4-fluorophenyl)-2-methyl-1H-imidazol-5-yl)imidazo[1,2-b]pyridazin-2-yl)-2-fluoroisonicotinamide] | 0.254 nM | 1.55 nM
5 | Cc1nc(-c2ccc(F)cc2)c(-c2ccc3nc(NC(=O)c4ccnc(F)c4)cn3n2)n1C1CCN(CCC(F)(F)F)CC1 [Compound 145, 2-fluoro-N-(6-(4-(4-fluorophenyl)-2-methyl-1-(1-(3,3,3-trifluoropropyl)piperidin-4-yl)-1H-imidazol-5-yl)imidazo[1,2-b]pyridazin-2-yl)isonicotinamide] | 0.962 nM | 9.51 nM
6 | Cc1nc(-c2ccc(F)cc2)c(-c2ccc3nc(NC(=O)c4ccnc(F)c4)cn3n2)n1C1CCN(CCCC(F)(F)F)CC1 [Compound 146, 2-fluoro-N-(6-(4-(4-fluorophenyl)-2-methyl-1-(1-(4,4,4-trifluorobutyl)piperidin-4-yl)-1H-imidazol-5-yl)imidazo[1,2-b]pyridazin-2-yl)isonicotinamide] | 2.24 nM | 24.8 nM
7 | Cc1nc(-c2ccc(F)cc2)c(-c2ccc3nc(NC(=O)c4ccnc(F)c4)cn3n2)n1C1CCN(C(=O)c2ccsn2)CC1 [Compound 147, 2-fluoro-N-(6-(4-(4-fluorophenyl)-1-(1-(isothiazole-3-carbonyl)piperidin-4-yl)-2-methyl-1H-imidazol-5-yl)imidazo[1,2-b]pyridazin-2-yl)isonicotinamide] | 0.529 nM | 4.9 nM
8 | O=C(Nc1cn2nc(-c3c(-c4ccc(F)cc4)ncn3C3CNC3)ccc2n1)c1ccnc(F)c1 [Compound 148, N-(6-(1-(azetidin-3-yl)-4-(4-fluorophenyl)-1H-imidazol-5-yl)imidazo[1,2-b]pyridazin-2-yl)-2-fluoroisonicotinamide] | 0.608 nM | 9.87 nM
9 | CN1CC(n2cnc(-c3ccc(F)cc3)c2-c2ccc3nc(NC(=O)c4ccnc(F)c4)cn3n2)C1 [Compound 149, 2-fluoro-N-(6-(4-(4-fluorophenyl)-1-(1-methylazetidin-3-yl)-1H-imidazol-5-yl)imidazo[1,2-b]pyridazin-2-yl)isonicotinamide] | 2.19 nM | 2.84 nM
10 | O=C(Nc1cn2nc(-c3c(-c4ccc(F)cc4)ncn3C3CN(CCO)C3)ccc2n1)c1ccnc(F)c1 [Compound 150, 2-fluoro-N-(6-(4-(4-fluorophenyl)-1-(1-(2-hydroxyethyl)azetidin-3-yl)-1H-imidazol-5-yl)imidazo[1,2-b]pyridazin-2-yl)isonicotinamide] | 0.034 nM | 3.81 nM
11 | Cc1nc(-c2cccnc2)sc1C(=O)Nc1cn2nc(-c3c(-c4ccc(F)cc4)ncn3C3CNC3)ccc2n1 [Compound 153, N-(6-(1-(azetidin-3-yl)-4-(4-fluorophenyl)-1H-imidazol-5-yl)imidazo[1,2-b]pyridazin-2-yl)-4-methyl-2-(pyridin-3-yl)thiazole-5-carboxamide] | 0.204 nM | 5.29 nM
12 | Cc1nc(-c2cccnc2)sc1C(=O)Nc1cn2nc(-c3c(-c4ccc(F)cc4)ncn3C3CN(C)C3)ccc2n1 [Compound 154, N-(6-(4-(4-fluorophenyl)-1-(1-methylazetidin-3-yl)-1H-imidazol-5-yl)imidazo[1,2-b]pyridazin-2-yl)-4-methyl-2-(pyridin-3-yl)thiazole-5-carboxamide] | 0.915 nM | 8.64 nM
13 | Cc1nc(-c2cccnc2)sc1C(=O)Nc1cn2nc(-c3c(-c4ccc(F)cc4)ncn3C3CN(CCO)C3)ccc2n1 [Compound 155, N-(6-(4-(4-fluorophenyl)-1-(1-(2-hydroxyethyl)azetidin-3-yl)-1H-imidazol-5-yl)imidazo[1,2-b]pyridazin-2-yl)-4-methyl-2-(pyridin-3-yl)thiazole-5-carboxamide] | 0.451 nM | 7.48 nM
14 | Cc1nc(-c2cccnc2)sc1C(=O)Nc1cn2nc(-c3c(-c4ccc(F)cc4)ncn3C3CN(C(=O)CN)C3)ccc2n1 [Compound 156, N-(6-(1-(1-(2-aminoacetyl)azetidin-3-yl)-4-(4-fluorophenyl)-1H-imidazol-5-yl)imidazo[1,2-b]pyridazin-2-yl)-4-methyl-2-(pyridin-3-yl)thiazole-5-carboxamide] | 0.249 nM | 0.976 nM
15 | O=C(Nc1cn2nc(-c3c(-c4ccc(F)cc4)ncn3C3CNC3)ccc2n1)c1ccncc1 [Compound 157, N-(6-(1-(azetidin-3-yl)-4-(4-fluorophenyl)-1H-imidazol-5-yl)imidazo[1,2-b]pyridazin-2-yl)isonicotinamide] | 0.587 nM | 9.93 nM

Further lines, results first:

Row | IC50 (CK1δ) | IC50 (CK1ε) | SMILES
16 | 0.854 nM | 2.73 nM | CN1CC(n2cnc(-c3ccc(F)cc3)c2-c2ccc3nc(NC(=O)c4ccncc4)cn3n2)C1 [Compound 158, N-(6-(4-(4-fluorophenyl)-1-(1-methylazetidin-3-yl)-1H-imidazol-5-yl)imidazo[1,2-b]pyridazin-2-yl)isonicotinamide]
17 | 1.31 nM | 5.6 nM | O=C(Nc1cn2nc(-c3c(-c4ccc(F)cc4)ncn3C3CN(CCO)C3)ccc2n1)c1ccncc1 [Compound 159, N-(6-(4-(4-fluorophenyl)-1-(1-(2-hydroxyethyl)azetidin-3-yl)-1H-imidazol-5-yl)imidazo[1,2-b]pyridazin-2-yl)isonicotinamide]
18 | 0.306 nM | 3.21 nM | O=C(Nc1cn2nc(-c3c(-c4ccc(F)cc4)ncn3CCN3CCOCC3)ccc2n1)c1ccncc1 [Compound 160, N-(6-(4-(4-fluorophenyl)-1-(2-morpholinoethyl)-1H-imidazol-5-yl)imidazo[1,2-b]pyridazin-2-yl)isonicotinamide]
19 | 0.415 nM | 2.5 nM | O=C(Nc1cn2nc(-c3c(-c4ccc(F)cc4)ncn3CCN3CCOCC3)ccc2n1)c1ccnc(F)c1 [Compound 161, 2-fluoro-N-(6-(4-(4-fluorophenyl)-1-(2-morpholinoethyl)-1H-imidazol-5-yl)imidazo[1,2-b]pyridazin-2-yl) isonicotinamide]
20 | 0.311 nM | 2.42 nM | O=C(Nc1cn2nc(-c3c(-c4ccc(F)cc4)ncn3CCN3CCOCC3)ccc2n1)c1cc(F)nc(F)c1 [Compound 162, 2,6-difluoro-N-(6-(4-(4-fluorophenyl)-1-(2-morpholinoethyl)-1H-imidazol-5-yl)imidazo[1,2-b]pyridazin-2-yl)isonicotinamide]
21 | 0.242 nM | 0.936 nM | Cc1nc(-c2cccnc2)sc1C(=O)Nc1cn2nc(-c3c(-c4ccc(F)cc4)ncn3CCN3CCOCC3)ccc2n1 [Compound 163, N-(6-(4-(4-fluorophenyl)-1-(2-morpholinoethyl)-1H-imidazol-5-yl)imidazo [1,2-b]pyridazin-2-yl)-4-methyl-2-(pyridin-3-yl) thiazole-5-carboxamide]
22 | 4.37 nM | 67.3 nM | N#CCC(=O)Nc1cn2nc(-c3c(-c4ccc(F)cc4)ncn3CCN3CCOCC3)ccc2n1 [Compound 164, 2-cyano-N-(6-(4-(4-fluorophenyl)-1-(2-morpholinoethyl)-1H-imidazol-5-yl)imidazo [1,2-b]pyridazin-2-yl) acetamide]
23 | 4.64 nM | 53.6 nM | O=C(CO)Nc1cn2nc(-c3c(-c4ccc(F)cc4)ncn3CCN3CCOCC3)ccc2n1 [Compound 165, N-(6-(4-(4-fluorophenyl)-1-(2-morpholinoethyl)-1H-imidazol-5-yl)imidazo [1,2-b]pyridazin-2-yl)-2-hydroxyacetamide]
24 | 0.192 nM | 1.3 nM | O=C(Nc1cn2nc(-c3c(-c4ccc(F)cc4)ncn3CCN3CCOCC3)ccc2n1)c1ccnc2ccccc12 [Compound 166, N-(6-(4-(4-fluorophenyl)-1-(2-morpholinoethyl)-1H-imidazol-5-yl)imidazo[1,2-b]pyridazin-2-yl)quinoline-4-carboxamide]
25 | 0.104 nM | 0.687 nM | O=C(Nc1cn2nc(-c3c(-c4ccc(F)cc4)ncn3CCN3CCOCC3)ccc2n1)c1cccc(-c2cccnc2)c1 [Compound 167, N-(6-(4-(4-fluorophenyl)-1-(2-morpholinoethyl)-1H-imidazol-5-yl)imidazo[1,2-b]pyridazin-2-yl)-3-(pyridin-3-yl)benzamide]
26 | 0.11 nM | 1.73 nM | O=C(Nc1cn2nc(-c3c(-c4ccc(F)cc4)ncn3CCN3CCOCC3)ccc2n1)c1ccnc(N2CCOCC2)c1 [Compound 168, N-(6-(4-(4-fluorophenyl)-1-(2-morpholinoethyl)-1H-imidazol-5-yl)imidazo[1,2-b]pyridazin-2-yl)-2-morpholinoisonicotinamide]
